Experimental data as given in US20210130780A1, “METHODS OF GENERATING ENUCLEATED ERYTHROID CELLS USING MYO-INOSITOL” (Rubius Therapeutics, Inc., priority 2019, published 2021).

System: Human CD34+ hematopoietic stem cells (HSCs) / erythroid progenitor cell cultures
Test: Effect of myo-inositol on erythroid cell growth and enucleation (three-stage culture, maturation phase)
Settings: third culture medium (maturation phase, 24 well plate) supplemented with an additional 1 g/L myo-inositol vs not supplemented control (basal IMDM 0.0072 g/L), FACS-based cell counting
Description: The effect of myo-inositol on erythroid progenitor cell cultures was examined. Human CD34^+ hematopoietic stem cells (HSCs) were cultured in a three-stage process to generate enucleated erythroid cells. In the first stage, the CD34+ HSCs were expanded in a T-flask in a first culture medium containing IMDM supplemented recombinant human insulin, recombinant human transferrin, recombinant human SCF, recombinant IL-3, recombinant Flt-3 ligand, and recombinant human IL-3. Subsequently, cells were transduced with a lentiviral vector encoding phenylalanine ammonia lyase. After transduction, cells were cultured in a 50 L bioreactor culture vessel containing a second culture medium containing IMDM, supplemented with recombinant human erythropoietin, recombinant human SCF, recombinant human IL3, recombinant human insulin, dexamethasone, and recombinant human transferrin. For the third stage of the process (maturation phase), an aliquot of cells were seeded into 24 well plate containing a third culture medium containing IMDM supplemented with recombinant human EPO, recombinant human SCF, recombinant human insulin, recombinant transferrin, human AB serum, and human plasma. […] Periodic sampling and cell counting was performed during the third stage using a fluorescence-activated cell sorting-based cell counter.

Structure (SMILES): O[C@H]1[C@H](O)[C@@H](O)[C@H](O)[C@@H](O)[C@H]1O [myo-inositol]
- total cell density of erythroid cells (FIG. 1): significantly increase
- enucleated erythroid cell density (FIG. 2): significantly increase
